US12679878B2, “CRF2 receptor agonists and their use in therapy” (SANOFI, priority 2020, dated 2026)
Read-outs that look alike come from different tables or passages of the source. Starred links: 1 amine or outer side, 2 acyl side, 3 side chain; linkers in the order of their positions; H or OH if unused. Non-standard residues stand in square brackets, D forms with d. Residues, ends and D or L forms follow the SMILES beside them. Groups on a side chain read outwards from the residue. *: point of attachment. C18 diacid = O=C(O)CCCCCCCCCCCCCCCCC(=O)*; γGlu = O=C(O)[C@H](CCC(=O)[*:2])N[*:1]; AEEA = NCCOCCOCC(=O)O; Aib = CC(C)(N)C(=O)O

Columns and labels:
human CRF2α receptor = target: T1, human CRF2α receptor (Homo sapiens, UniProt Q13324); test: cAMP agonism at human CRF2 α receptor in TeloHEAC cells (Example 7); type: cell-based; details: cAMP HTRF, TeloHEAC cells stably expressing human CRF2 α
T1 construct: expressed in transfected cells; host or cells: TeloHEAC
T1 sequence (Q13324 1-411): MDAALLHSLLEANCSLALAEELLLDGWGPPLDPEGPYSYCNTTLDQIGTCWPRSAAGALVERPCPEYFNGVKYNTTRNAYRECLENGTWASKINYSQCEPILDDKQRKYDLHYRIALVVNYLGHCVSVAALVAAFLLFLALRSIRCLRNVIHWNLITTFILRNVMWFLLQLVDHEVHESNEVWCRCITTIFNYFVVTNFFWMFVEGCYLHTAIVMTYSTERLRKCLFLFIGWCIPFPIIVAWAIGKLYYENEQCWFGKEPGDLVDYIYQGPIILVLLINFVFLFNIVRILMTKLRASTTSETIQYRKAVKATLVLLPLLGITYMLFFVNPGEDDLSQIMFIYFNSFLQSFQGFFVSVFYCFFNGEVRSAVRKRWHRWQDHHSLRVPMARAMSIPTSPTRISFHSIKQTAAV
Method in brief: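 Percent activation was referenced to 1000 nM UCN2 (100%), and EC50 values taken as concentrations giving half of maximal response. The read-out was a homogeneous time-resolved fluorescence cAMP kit, fluorescence ratio 665/620 nm. Thawed cells (2000/well) saw compound for 30 min at RT in buffer with 2 mM IBMX and 0%/0.1% HSA.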

CRF1R receptor = target: T2, CRF1R receptor (Homo sapiens, UniProt P34998); test: cAMP activity at anti-target CRF1R, CHO-K1 cell line clone 2 (Example 19.10); type: cell-based; details: CRF1R CHO-K1 clone 2; for EC50: 0% HSA, read-out: EC50 [nM] 0% HSA; for Emax: 100% = Sauvagine at 100 nM
T2 construct: host or cells: CHO-K1 clone 2
T2 sequence (P34998 24-415): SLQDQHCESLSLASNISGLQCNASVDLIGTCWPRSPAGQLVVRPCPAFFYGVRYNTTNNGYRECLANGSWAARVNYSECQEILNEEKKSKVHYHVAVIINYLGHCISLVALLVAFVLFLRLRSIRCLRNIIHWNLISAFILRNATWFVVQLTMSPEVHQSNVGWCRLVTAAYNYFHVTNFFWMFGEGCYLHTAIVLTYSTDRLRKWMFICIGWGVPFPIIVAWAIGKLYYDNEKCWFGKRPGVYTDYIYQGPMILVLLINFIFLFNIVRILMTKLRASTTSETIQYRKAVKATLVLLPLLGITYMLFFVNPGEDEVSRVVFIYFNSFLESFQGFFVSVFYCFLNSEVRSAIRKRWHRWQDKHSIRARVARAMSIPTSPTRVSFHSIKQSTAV
Method in brief: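 A CRF1R-overexpressing CHO-K1 line (clone 2) was grown in F12/10% FBS/G418 and frozen in aliquots before use. The cAMP assay followed the preceding procedure, with 100% activation defined by Sauvagine at 100 nM.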

[1] = 0% HSA, read-out: EC50 [nM], 0% HSA
[2] = 0.1% HSA, read-out: EC50 [nM], 0.1% HSA

Compound | EC50 (human CRF2α receptor; [1]) | EC50 (human CRF2α receptor; [2]) | EC50 (CRF1R receptor) | Emax (CRF1R receptor)
CC[C@H](C)[C@H](N)C(=O)N[C@H](C(=O)N[C@@H](CC(C)C)C(=O)N[C@@H](CO)C(=O)N[C@@H](CC(C)C)C(=O)N[C@@H](CC(=O)O)C(=O)N[C@H](C(=O)N1CCC[C@H]1C(=O)N[C@H](C(=O)N[C@@H](CCCCN)C(=O)N[C@@H](CC(C)C)C(=O)N[C@@H](CCCCNC(=O)COCCOCCNC(=O)COCCOCCNC(=O)CC[C@H](NC(=O)CCCCCCCCCCCCCCCCC(=O)O)C(=O)O)C(=O)N[C@@H](CCC(N)=O)C(=O)N[C@H](C(=O)N[C@@H](CC(C)C)C(=O)N[C@@H](CC(C)C)C(=O)N[C@@H](CCC(=O)O)C(=O)N[C@@H](CCC(N)=O)C(=O)N[C@@H](C)C(=O)N[C@@H](CCCNC(=N)N)C(=O)N[C@@H](CCC(N)=O)C(=O)N[C@@H](CCCCN)C(=O)NC(C)(C)C(=O)N[C@@H](CCC(N)=O)C(=O)N[C@@H](CCCNC(=N)N)C(=O)N[C@@H](CCC(=O)O)C(=O)N[C@@H](CCC(N)=O)C(=O)N[C@@H](C)C(=O)N[C@@H](CCC(=O)O)C(=O)N[C@@H](CCCCN)C(=O)N[C@@H](CC(N)=O)C(=O)N[C@@H](CCCCN)C(=O)N[C@@H](CCCNC(=N)N)C(=O)N[C@H](C(=O)N[C@@H](CC(C)C)C(=O)N[C@@H](CCC(=O)O)C(=O)N[C@@H](CCCNC(=N)N)C(=O)N[C@H](C(N)=O)C(C)C)[C@@H](C)CC)[C@@H](C)CC)[C@@H](C)CC)C(C)C)C(C)C [compound 125] (H-IVLSLDVPIKLK([AEEA-AEEA-γGlu-C18 diacid])QILLEQARQK[Aib]QREQAEKNKRILERV-NH2; N-terminus assumed) | 0.47 nM | 19.9 nM | > 100 nM | 17.7%
CC[C@H](C)[C@H](N)C(=O)N[C@H](C(=O)N[C@@H](CC(C)C)C(=O)N[C@@H](CO)C(=O)N[C@@H](CC(C)C)C(=O)N[C@@H](CC(=O)O)C(=O)N[C@@H](C(=O)N1CCC[C@H]1C(=O)N[C@H](C(=O)N[C@@H](CCCCN)C(=O)N[C@@H](CC(C)C)C(=O)N[C@@H](CCCCNC(=O)COCCOCCNC(=O)COCCOCCNC(=O)CC[C@H](NC(=O)CCCCCCCCCCCCCCCCC(=O)O)C(=O)O)C(=O)N[C@@H](CCC(N)=O)C(=O)N[C@H](C(=O)N[C@@H](CC(C)C)C(=O)N[C@@H](CC(C)C)C(=O)N[C@@H](CCC(=O)O)C(=O)N[C@@H](CCC(N)=O)C(=O)N[C@@H](C)C(=O)N[C@@H](CCCCN)C(=O)N[C@@H](CCC(N)=O)C(=O)N[C@@H](CCCCN)C(=O)NC(C)(C)C(=O)N[C@@H](CCC(N)=O)C(=O)N[C@@H](CCCNC(=N)N)C(=O)N[C@@H](C)C(=O)N[C@@H](CCC(N)=O)C(=O)N[C@@H](C)C(=O)N[C@@H](CCC(=O)O)C(=O)N[C@@H](CCCCN)C(=O)N[C@@H](CC(N)=O)C(=O)N[C@@H](CCCCN)C(=O)N[C@@H](CCCNC(=N)N)C(=O)N[C@H](C(=O)N[C@@H](CC(C)C)C(=O)N[C@@H](CCC(=O)O)C(=O)N[C@@H](CCCNC(=N)N)C(=O)N[C@H](C(N)=O)C(C)C)[C@@H](C)CC)[C@@H](C)CC)[C@@H](C)CC)C(C)C)C(C)C [compound 126] (H-IVLSLD[dV]PIKLK([AEEA-AEEA-γGlu-C18 diacid])QILLEQAKQK[Aib]QRAQAEKNKRILERV-NH2; N-terminus assumed) | 0.22 nM | 5.59 nM | > 100 nM | 36.5%
CC[C@H](C)[C@H](N)C(=O)N[C@H](C(=O)N[C@@H](CC(C)C)C(=O)N[C@@H](CO)C(=O)N[C@@H](CC(C)C)C(=O)N[C@@H](CC(=O)O)C(=O)N[C@@H](C(=O)N1CCC[C@H]1C(=O)N[C@H](C(=O)N[C@@H](CCCCN)C(=O)N[C@@H](CC(C)C)C(=O)N[C@@H](CCCCNC(=O)COCCOCCNC(=O)COCCOCCNC(=O)CC[C@H](NC(=O)CCCCCCCCCCCCCCCCC(=O)O)C(=O)O)C(=O)N[C@@H](CCC(N)=O)C(=O)N[C@H](C(=O)N[C@@H](CC(C)C)C(=O)N[C@@H](CC(C)C)C(=O)N[C@@H](CCCCN)C(=O)N[C@@H](CCC(N)=O)C(=O)N[C@@H](CCC(=O)O)C(=O)N[C@@H](CCCNC(=N)N)C(=O)N[C@@H](CCC(N)=O)C(=O)N[C@@H](CCCCN)C(=O)NC(C)(C)C(=O)N[C@@H](CCC(N)=O)C(=O)N[C@@H](CCCNC(=N)N)C(=O)N[C@@H](CCC(=O)O)C(=O)N[C@@H](CCCCN)C(=O)N[C@@H](C)C(=O)N[C@@H](CCC(=O)O)C(=O)N[C@@H](CCCCN)C(=O)N[C@@H](CC(N)=O)C(=O)N[C@@H](CCCCN)C(=O)N[C@@H](CCC(N)=O)C(=O)N[C@H](C(=O)N[C@@H](CC(C)C)C(=O)N[C@@H](C)C(=O)N[C@@H](CCC(N)=O)C(=O)N[C@H](C(N)=O)C(C)C)[C@@H](C)CC)[C@@H](C)CC)[C@@H](C)CC)C(C)C)C(C)C [compound 134] (H-IVLSLD[dV]PIKLK([AEEA-AEEA-γGlu-C18 diacid])QILLKQERQK[Aib]QREKAEKNKQILAQV-NH2; N-terminus assumed) | 0.07 nM | 3.44 nM | > 100 nM | -8.6%
CC[C@H](C)[C@H](N)C(=O)N[C@H](C(=O)N[C@@H](CC(C)C)C(=O)N[C@@H](CO)C(=O)N[C@@H](CC(C)C)C(=O)N[C@@H](CC(=O)O)C(=O)N[C@H](C(=O)N1CCC[C@H]1C(=O)N[C@H](C(=O)NCC(=O)N[C@@H](CC(C)C)C(=O)N[C@@H](CCCCNC(=O)COCCOCCNC(=O)COCCOCCNC(=O)CC[C@H](NC(=O)CCCCCCCCCCCCCCCCC(=O)O)C(=O)O)C(=O)N[C@@H](CCC(N)=O)C(=O)N[C@H](C(=O)N[C@@H](CC(C)C)C(=O)N[C@@H](CC(C)C)C(=O)N[C@@H](CCCCN)C(=O)N[C@@H](CCC(N)=O)C(=O)N[C@@H](CCC(=O)O)C(=O)N[C@@H](CCCNC(=N)N)C(=O)N[C@@H](CCC(N)=O)C(=O)N[C@@H](CCCCN)C(=O)N[C@@H](CCCCN)C(=O)NC(C)(C)C(=O)N[C@@H](CCCNC(=N)N)C(=O)N[C@@H](CCC(=O)O)C(=O)N[C@@H](CCC(N)=O)C(=O)N[C@@H](C)C(=O)N[C@@H](CCC(=O)O)C(=O)N[C@H](C(=O)N[C@@H](CC(N)=O)C(=O)N[C@@H](CCCCN)C(=O)N[C@@H](CCCNC(=N)N)C(=O)N[C@H](C(=O)N[C@@H](CC(C)C)C(=O)N[C@@H](CCC(=O)O)C(=O)N[C@@H](CCCNC(=N)N)C(=O)N[C@H](C(N)=O)C(C)C)[C@@H](C)CC)[C@@H](C)O)[C@@H](C)CC)[C@@H](C)CC)C(C)C)C(C)C [compound 148] (H-IVLSLDVPIGLK([AEEA-AEEA-γGlu-C18 diacid])QILLKQERQKK[Aib]REQAETNKRILERV-NH2; N-terminus assumed) | 0.29 nM | 14.3 nM | > 100 nM | 2.6%
